Experimental data taken from ChEMBL document CHEMBL3232722, “Synthesis and kinase inhibitory activity of new sulfonamide derivatives of pyrazolo[4,3-e][1,2,4]triazines” (Eur J Med Chem, 2014).
Active and inactive are the calls of the source. The rule behind the calls is not given here.

Key:
MDA-MB-231 [1] = experiment: In vitro antiproliferative activity against human MDA-MB-231 cells assessed as decrease in cell vaibility after 24 hrs by MTT assay; format: functional, cell-based; conditions: for IC50: MDA-MB-231, 24 h
K562 [2] = experiment: Effect on cell cycle distribution in human K562 cells after 24 hrs by propidium iodide staining based flow cytometry; format: functional
MCF7 [3] = experiment: Cytostatic activity against human MCF7 cells assessed as decrease in [3H]thymidine incorporation into DNA after 24 hrs by liquid scintillation counting analysis; format: functional, cell-based
[4] = biological target: Casein kinase II subunit alpha (Homo sapiens, UniProt P68400); experiment: Inhibition of CK2alpha1 (unknown origin) using casein as substrate in presence of [gamma33P]ATP
Chain of Casein kinase II subunit alpha (P68400 whole entry): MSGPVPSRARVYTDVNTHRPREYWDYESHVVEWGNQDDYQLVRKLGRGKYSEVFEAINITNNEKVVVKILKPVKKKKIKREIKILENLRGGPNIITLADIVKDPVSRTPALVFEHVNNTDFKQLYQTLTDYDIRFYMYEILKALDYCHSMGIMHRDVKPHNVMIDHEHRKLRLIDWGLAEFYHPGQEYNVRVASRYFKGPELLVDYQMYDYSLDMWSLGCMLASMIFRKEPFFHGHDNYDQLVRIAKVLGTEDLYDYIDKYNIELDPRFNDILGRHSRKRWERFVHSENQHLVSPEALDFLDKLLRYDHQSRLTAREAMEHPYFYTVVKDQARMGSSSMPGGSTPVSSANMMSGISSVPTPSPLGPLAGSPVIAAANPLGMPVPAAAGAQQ

K562 [5] = experiment: Inhibition of tyrosine phosphorylation of protein with molecular weight between 40 and 60 kDa in human K562 cells after 1 hr by immunoblot analysis; format: functional, cell-based
[6] = biological target: T1, Bcr/Abl fusion protein (Homo sapiens) (UniProt P00519+P11274); experiment: Inhibition of Bcr/Abl kinase tyrosine phosphorylation in human K562 cells after 1 hr by immunoblot analysis; format: cell-based
T1 sequence (P00519 whole entry, looked up, the tested form may be a part): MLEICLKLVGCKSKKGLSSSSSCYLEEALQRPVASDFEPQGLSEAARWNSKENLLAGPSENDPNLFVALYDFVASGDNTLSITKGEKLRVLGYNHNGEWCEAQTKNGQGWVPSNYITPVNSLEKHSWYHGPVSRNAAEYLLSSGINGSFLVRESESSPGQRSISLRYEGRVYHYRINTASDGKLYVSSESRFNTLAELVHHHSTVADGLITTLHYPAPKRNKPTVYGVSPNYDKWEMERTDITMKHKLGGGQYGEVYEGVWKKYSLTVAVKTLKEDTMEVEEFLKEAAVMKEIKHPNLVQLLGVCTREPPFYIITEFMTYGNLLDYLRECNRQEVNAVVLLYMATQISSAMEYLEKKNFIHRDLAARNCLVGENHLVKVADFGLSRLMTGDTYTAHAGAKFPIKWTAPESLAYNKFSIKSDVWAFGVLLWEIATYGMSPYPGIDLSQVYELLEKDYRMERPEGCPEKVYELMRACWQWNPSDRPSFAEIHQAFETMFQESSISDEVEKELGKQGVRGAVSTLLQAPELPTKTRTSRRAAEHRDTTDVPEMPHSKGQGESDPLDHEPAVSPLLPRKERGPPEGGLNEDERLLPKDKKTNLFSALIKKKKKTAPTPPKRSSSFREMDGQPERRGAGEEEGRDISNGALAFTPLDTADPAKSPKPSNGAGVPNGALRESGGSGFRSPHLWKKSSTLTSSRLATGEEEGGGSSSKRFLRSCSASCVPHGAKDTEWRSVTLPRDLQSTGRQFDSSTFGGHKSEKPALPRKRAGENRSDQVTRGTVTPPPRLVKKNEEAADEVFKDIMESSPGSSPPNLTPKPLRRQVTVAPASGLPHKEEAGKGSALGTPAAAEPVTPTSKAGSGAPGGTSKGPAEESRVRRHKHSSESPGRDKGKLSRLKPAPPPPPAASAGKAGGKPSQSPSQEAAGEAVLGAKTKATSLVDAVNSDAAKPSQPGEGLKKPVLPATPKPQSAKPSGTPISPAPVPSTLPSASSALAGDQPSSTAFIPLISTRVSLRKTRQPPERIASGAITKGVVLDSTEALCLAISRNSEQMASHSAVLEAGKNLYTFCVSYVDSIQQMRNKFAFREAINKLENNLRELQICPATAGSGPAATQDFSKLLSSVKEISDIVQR
T1 sequence (P11274 whole entry, looked up, the tested form may be a part): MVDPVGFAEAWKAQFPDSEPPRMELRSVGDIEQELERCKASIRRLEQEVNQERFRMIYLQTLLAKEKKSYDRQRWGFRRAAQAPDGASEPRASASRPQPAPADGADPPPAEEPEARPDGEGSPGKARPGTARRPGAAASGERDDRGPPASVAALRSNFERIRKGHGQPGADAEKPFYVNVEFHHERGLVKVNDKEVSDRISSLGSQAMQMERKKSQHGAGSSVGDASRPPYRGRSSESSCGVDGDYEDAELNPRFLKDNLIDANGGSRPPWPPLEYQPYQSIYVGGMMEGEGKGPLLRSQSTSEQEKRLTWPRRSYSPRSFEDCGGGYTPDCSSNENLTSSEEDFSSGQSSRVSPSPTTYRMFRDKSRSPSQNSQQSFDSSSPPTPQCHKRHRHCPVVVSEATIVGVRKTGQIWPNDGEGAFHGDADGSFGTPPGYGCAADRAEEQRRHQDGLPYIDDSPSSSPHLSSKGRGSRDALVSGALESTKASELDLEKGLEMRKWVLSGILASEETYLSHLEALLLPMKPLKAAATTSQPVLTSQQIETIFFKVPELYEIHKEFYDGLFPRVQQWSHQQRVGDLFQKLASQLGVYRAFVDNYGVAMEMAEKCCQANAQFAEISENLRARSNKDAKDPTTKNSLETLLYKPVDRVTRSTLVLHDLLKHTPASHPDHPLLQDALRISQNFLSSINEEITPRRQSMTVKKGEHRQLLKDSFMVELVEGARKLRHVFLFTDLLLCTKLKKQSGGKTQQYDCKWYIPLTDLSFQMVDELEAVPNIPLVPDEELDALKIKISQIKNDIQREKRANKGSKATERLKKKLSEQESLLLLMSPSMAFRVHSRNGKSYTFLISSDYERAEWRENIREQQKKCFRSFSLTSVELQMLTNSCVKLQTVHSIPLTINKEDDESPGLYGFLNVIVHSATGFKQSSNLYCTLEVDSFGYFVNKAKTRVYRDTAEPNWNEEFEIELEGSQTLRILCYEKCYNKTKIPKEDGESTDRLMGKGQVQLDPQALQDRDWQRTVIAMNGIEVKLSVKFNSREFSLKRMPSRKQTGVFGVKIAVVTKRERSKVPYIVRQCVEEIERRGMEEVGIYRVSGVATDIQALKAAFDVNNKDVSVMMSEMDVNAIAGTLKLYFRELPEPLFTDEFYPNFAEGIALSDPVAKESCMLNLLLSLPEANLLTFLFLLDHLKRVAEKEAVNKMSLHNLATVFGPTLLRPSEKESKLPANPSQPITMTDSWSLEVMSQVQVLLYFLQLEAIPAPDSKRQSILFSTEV

[7] = biological target: Cyclin-dependent kinase 2/cyclin E1 (Homo sapiens, UniProt P24941); experiment: Inhibition of CDK2/cyclin E (unknown origin) expressed in Sf9 cells using histone H1 as substrate in presence of [gamma33P]ATP
MCF7 [8] = experiment: In vitro antiproliferative activity against human MCF7 cells assessed as decrease cell viability after 24 hrs by MTT assay; format: functional, cell-based; conditions: for IC50: MCF7, 24 h
MDA-MB-231 [9] = experiment: Ratio of IC50 for human MDA-MB-231 cells to IC50 for human K562 cells; format: functional
[10] = biological target: T2, Tyrosine-protein kinase ABL1 (Homo sapiens, UniProt P00519); experiment: Inhibition of recombinant Abl kinase (unknown origin) expressed in Sf9 cells using GGEAIYAAPFKK as substrate in presence of [gamma33P]ATP
T2 sequence (P00519 whole entry): as the sequence (P00519 whole entry, looked up, the tested form may be a part) above

CCRF-CEM = experiment: In vitro antiproliferative activity against human CCRF-CEM cells assessed as decrease in cell viability after 24 hrs by MTT assay; format: functional, cell-based
HL-60 = experiment: In vitro antiproliferative activity against human HL60 cells assessed as decrease in cell viability after 24 hrs by MTT assay; format: functional, cell-based; conditions: for IC50: HL-60, 24 h, read-out: IC50
[11] = biological target: T2, Tyrosine-protein kinase ABL1; experiment: Inhibition of Abl kinase tyrosine phosphorylation in human K562 cells after 1 hr by immunoblot analysis; format: cell-based
MDA-MB-231 [12] = experiment: Cytostatic activity against human MDA-MB-231 cells assessed as decrease in [3H]thymidine incorporation into DNA after 24 hrs by liquid scintillation counting analysis; format: functional, cell-based
[13] = (§1) In vitro antiproliferative activity against human BV173 cells assessed as decrease in cell viability after 24 hrs by MTT assay; format: functional, cell-based; conditions: BV-173, 24 h
BV-173 = experiment: as §1; format: functional, cell-based
K562 [14] = experiment: Induction of apoptosis in human K562 cells assessed as increase in sub-diploid cell population at 10 to 100 uM after 24 hrs by propidium iodide staining based flow cytometry; format: functional
K562 [15] = experiment: In vitro antiproliferative activity against human K562 cells assessed as decrease in cell viability after 24 hrs by MTT assay; format: functional, cell-based; conditions: for IC50: K562, 24 h
K562 [16] = experiment: Antiproliferative activity against human K562 cells assessed as increase in number of cells with compromised cell membranes at 10 to 100 uM after 24 hrs by propidium iodide exclusion assay based flow cytometry; format: functional
[17] = biological target: T1, Bcr/Abl fusion protein (Homo sapiens); experiment: Inhibition of Bcr/Abl kinase in human K562 cells assessed as decrease in STAT5 phosphorylation at Tyr694 after 1 hr by immunoblot analysis; format: cell-based
[18] = biological target: T1, Bcr/Abl fusion protein (Homo sapiens); experiment: Inhibition of Bcr/Abl kinase in human K562 cells assessed as decrease in CrkL phosphorylation at Tyr207 at 1 to 100 uM after 1 hr by immunoblot analysis; format: cell-based
MCF7 [19] = experiment: Ratio of IC50 for human MCF7 cells to IC50 for human K562 cells; format: functional

Row | Compound | inhibition (MDA-MB-231 [1]) | IC50 (MDA-MB-231 [1]) [µM] | Activity (K562 [2]) | IC50 (MCF7 [3]) [µM] | inhibition (MCF7 [3]) | IC50 [4] [µM] | inhibition (K562 [5]) | inhibition [6] | IC50 [7] [µM] | inhibition (MCF7 [8]) | IC50 (MCF7 [8]) [µM] | IC50 [10] [µM] | IC50 (CCRF-CEM) [µM] | inhibition (CCRF-CEM) | inhibition (HL-60) | IC50 (HL-60) [µM] | inhibition [11] | IC50 (MDA-MB-231 [12]) [µM] | inhibition (MDA-MB-231 [12]) | IC50 [13] [µM] | other results
1 | Cc1nn(C)c2nnc(Nc3ccc(S(=O)(=O)N4CCCNCC4)cc3)nc12 | Dose-dependent effect | 155 | inactive | 123 | Dose-dependent effect | > 50 | Dose-dependent effect | Dose-dependent effect | > 50 | Dose-dependent effect | 140 | 5.9 | 36 | Dose-dependent effect | Dose-dependent effect | 38 | Dose-dependent effect | 150 | Dose-dependent effect | 22 | Ratio IC50 (MDA-MB-231 [9]): 7; inhibition (BV-173): Dose-dependent effect; Activity (K562 [14]): Active; inhibition (K562 [15]): Dose-dependent effect; IC50 (K562 [15]): 21 µM; Activity (K562 [16]): Active; inhibition [17]: Dose-dependent effect
2 | Cc1nn(C)c2nnc(Nc3ccc(S(=O)(=O)N4CCNCC4)cc3)nc12 | Dose-dependent effect | 130 | inactive | 170 | Dose-dependent effect | > 25 | Dose-dependent effect | Dose-dependent effect | > 25 | Dose-dependent effect | 150 | 5.8 | 20 | Dose-dependent effect | Dose-dependent effect | 55 | Dose-dependent effect | 103 | Dose-dependent effect | 22 | inhibition [18]: Active; Ratio IC50 (MCF7 [19]): 5; inhibition (BV-173): Dose-dependent effect; Activity (K562 [14]): Active; inhibition (K562 [15]): Dose-dependent effect; IC50 (K562 [15]): 27 µM; Activity (K562 [16]): Active; inhibition [17]: Dose-dependent effect
